The source of these data is patent publication US10280173B2, “Ibrutinib solid forms and production process therefor” (WAVELENGTH ENTERPRISES LTD., priority 2014, dated 2019).

Series [1] in a line: Hygroscopicity test according to the European Pharmacopoeia, 5.11. The following applies: 80±2% relative humidity, 25° C., 24 hours. It is filed as physicochemical. As to the method: The hygroscopicity test was carried out according to the European Pharmacopoeia, 5.11 Characters Section in Monographs at ambient temperature (about 25° C.) on substance “as is”.
Desiccator with saturated ammonium chloride solution was prepared as follows: to a 100 mL of water was added accurately weighed 46.3 g of ammonium chloride under mixing. The solubility of ammonium chloride in water at ambient temperature is about 41.4 g/100 mL water at 30° C. An amount of amorphous ibrutinib was placed in a glass weighing vessel with stopper (m1) and weighed (m2). The un-stoppered vessel was placed in a desiccator containing a saturated solution of ammonium chloride (80±2% relative humidity) at 25° C. for 24 hours. The weighing vessel was stoppered and weighed (m3). The percentage increase in mass was calculated according to the following formula: […]
The following Table 10 includes the standard defined hygroscopicity values according to the European Pharmacopoeia, 5.11 Characters Section in Monographs: […]

For series [2] the following is noted: rats; cited from earlier work.

`C=CC(=O)N1CCC[C@@H](n2nc(-c3ccc(Oc4ccccc4)cc3)c3c(N)ncnc32)C1` [amorphous ibrutinib]: the degree of hygroscopicity result in series [1] was “slightly hygroscopic”. Further, the “Increase in mass %” value in series [1] (substance as is) was 1.24%. Besides, in series [1] (m3 minus m2), the “Increase in mass g” value was 0.01077 g.
`C=CC(=O)N1CCC[C@@H](n2nc(-c3ccc(Oc4ccccc4)cc3)c3c(N)ncnc32)C1` [ibrutinib, 1-[(3R)-3-[4-amino-3-(4-phenoxyphenyl)-1H-pyrazolo[3,4-d]pyrimidin-1-yl]piperidin-1-yl]prop-2-en-1-one]: in series [2], the oral bioavailability is 22.8%.
